Measurements from the supplement of paper PMC10307832.

How the values were obtained:
Assay in all cases: relative viability (nuclei count vs DMSO), 5 days (fraction); higher = more cells survive
HCC-78 = test system: HCC-78
Procedure, shortened: (§1)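 Relative viability is defined as nuclei in treated wells over nuclei in vehicle wells. Duplicate plates were run and medians reported. Lung cancer cell lines in 1536-well plates were dosed by pin tool one day after seeding, with one drug or with a fixed anchor-drug dose plus five library-drug doses (not always all listed) in √10 steps, and nuclei were counted after 5 days.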

SK-LU-1 = test system: SK-LU-1
Procedure, shortened: as §1

NCI-H2085 = test system: NCI-H2085
Procedure, shortened: as §1

NCI-H358 = test system: NCI-H358
Procedure, shortened: as §1

NCI-H1666 = test system: NCI-H1666
Procedure, shortened: as §1

NCI-H1915 = test system: NCI-H1915
Procedure, shortened: as §1

EPLC-272H = test system: EPLC-272H
Procedure, shortened: as §1

COR-L 105 = test system: COR-L 105
Procedure, shortened: as §1

SW 900 = test system: SW 900
Procedure, shortened: as §1

UMC-11 = test system: UMC-11
Procedure, shortened: as §1

HOP-62 = test system: HOP-62
Procedure, shortened: as §1

NCI-H1793 = test system: NCI-H1793
Procedure, shortened: as §1

NCI-H460 = test system: NCI-H460
Procedure, shortened: as §1

NCI-H1792 = test system: NCI-H1792
Procedure, shortened: as §1

LU99A = test system: LU99A
Procedure, shortened: as §1

NCI-H2170 = test system: NCI-H2170
Procedure, shortened: as §1

NCI-H1944 = test system: NCI-H1944
Procedure, shortened: as §1

HCC-366 = test system: HCC-366
Procedure, shortened: as §1

A-427 = test system: A-427
Procedure, shortened: as §1

NCI-H2009 = test system: NCI-H2009
Procedure, shortened: as §1

LXF-289 = test system: LXF-289
Procedure, shortened: as §1

LC-2-ad = test system: LC-2-ad
Procedure, shortened: as §1

## Cc1sc2c(c1C)C(c1ccc(Cl)cc1)=N[C@@H](CC(=O)OC(C)(C)C)c1nnc(C)n1-2 [JQ1] + Cc1nc(Nc2ncc(C(=O)Nc3c(C)cccc3Cl)s2)cc(N2CCN(CCO)CC2)n1 [Dasatinib] (partner 0.075 µM)
HCC-78; first compound 0.04 µM
  relative viability: 0.364
HCC-78; first compound 0.1265 µM
  relative viability: 0.419
HCC-78; first compound 0.4 µM
  relative viability: 0.366
HCC-78; first compound 1.265 µM
  relative viability: 0.319
HCC-78; first compound 4 µM
  relative viability: 0.248
SK-LU-1; first compound 0.04 µM
  relative viability: 0.185
SK-LU-1; first compound 0.1265 µM
  relative viability: 0.18
SK-LU-1; first compound 0.4 µM
  relative viability: 0.182
SK-LU-1; first compound 1.265 µM
  relative viability: 0.124
SK-LU-1; first compound 4 µM
  relative viability: 0.11
NCI-H2085; first compound 0.04 µM
  relative viability: 0.257
NCI-H2085; first compound 0.1265 µM
  relative viability: 0.275
NCI-H2085; first compound 0.4 µM
  relative viability: 0.189
NCI-H2085; first compound 1.265 µM
  relative viability: 0.223
NCI-H2085; first compound 4 µM
  relative viability: 0.176
NCI-H358; first compound 0.04 µM
  relative viability: 0.182
NCI-H358; first compound 0.1265 µM
  relative viability: 0.262
NCI-H358; first compound 0.4 µM
  relative viability: 0.279
NCI-H358; first compound 1.265 µM
  relative viability: 0.183
NCI-H358; first compound 4 µM
  relative viability: 0.209
NCI-H1666; first compound 0.04 µM
  relative viability: 0.791
NCI-H1666; first compound 0.1265 µM
  relative viability: 0.593
NCI-H1666; first compound 0.4 µM
  relative viability: 0.587
NCI-H1666; first compound 1.265 µM
  relative viability: 0.554
NCI-H1666; first compound 4 µM
  relative viability: 0.504
NCI-H1915; first compound 0.04 µM
  relative viability: 0.281
NCI-H1915; first compound 0.1265 µM
  relative viability: 0.303
NCI-H1915; first compound 0.4 µM
  relative viability: 0.317
NCI-H1915; first compound 1.265 µM
  relative viability: 0.249
NCI-H1915; first compound 4 µM
  relative viability: 0.191
EPLC-272H; first compound 0.04 µM
  relative viability: 0.352
EPLC-272H; first compound 0.1265 µM
  relative viability: 0.382
EPLC-272H; first compound 0.4 µM
  relative viability: 0.358
EPLC-272H; first compound 1.265 µM
  relative viability: 0.175
EPLC-272H; first compound 4 µM
  relative viability: 0.204
COR-L 105; first compound 0.04 µM
  relative viability: 0.297
COR-L 105; first compound 0.1265 µM
  relative viability: 0.186
COR-L 105; first compound 0.4 µM
  relative viability: 0.156
COR-L 105; first compound 1.265 µM
  relative viability: 0.119
COR-L 105; first compound 4 µM
  relative viability: 0.132
SW 900; first compound 0.04 µM
  relative viability: 0.521
SW 900; first compound 0.1265 µM
  relative viability: 0.456
SW 900; first compound 0.4 µM
  relative viability: 0.298
SW 900; first compound 1.265 µM
  relative viability: 0.193
SW 900; first compound 4 µM
  relative viability: 0.135
UMC-11; first compound 0.04 µM
  relative viability: 0.501
UMC-11; first compound 0.1265 µM
  relative viability: 0.43
UMC-11; first compound 0.4 µM
  relative viability: 0.321
UMC-11; first compound 1.265 µM
  relative viability: 0.239
UMC-11; first compound 4 µM
  relative viability: 0.221
HOP-62; first compound 0.04 µM
  relative viability: 0.559
HOP-62; first compound 0.1265 µM
  relative viability: 0.31
HOP-62; first compound 0.4 µM
  relative viability: 0.355
HOP-62; first compound 1.265 µM
  relative viability: 0.158
HOP-62; first compound 4 µM
  relative viability: 0.116
NCI-H1793; first compound 0.04 µM
  relative viability: 0.312
NCI-H1793; first compound 0.1265 µM
  relative viability: 0.345
NCI-H1793; first compound 0.4 µM
  relative viability: 0.435
NCI-H1793; first compound 1.265 µM
  relative viability: 0.385
NCI-H1793; first compound 4 µM
  relative viability: 0.418
NCI-H460; first compound 0.04 µM
  relative viability: 0.5
NCI-H460; first compound 0.1265 µM
  relative viability: 0.221
NCI-H460; first compound 0.4 µM
  relative viability: 0.201
NCI-H460; first compound 1.265 µM
  relative viability: 0.171
NCI-H460; first compound 4 µM
  relative viability: 0.075
NCI-H1792; first compound 0.04 µM
  relative viability: 0.837
NCI-H1792; first compound 0.4 µM
  relative viability: 0.839
NCI-H1792; first compound 1.265 µM
  relative viability: 0.579
NCI-H1792; first compound 4 µM
  relative viability: 0.5
LU99A; first compound 0.04 µM
  relative viability: 0.551
LU99A; first compound 0.1265 µM
  relative viability: 0.378
LU99A; first compound 0.4 µM
  relative viability: 0.603
LU99A; first compound 1.265 µM
  relative viability: 0.207
LU99A; first compound 4 µM
  relative viability: 0.206
NCI-H2170; first compound 0.04 µM
  relative viability: 0.57
NCI-H2170; first compound 0.1265 µM
  relative viability: 0.47
NCI-H2170; first compound 0.4 µM
  relative viability: 0.392
NCI-H2170; first compound 1.265 µM
  relative viability: 0.334
NCI-H2170; first compound 4 µM
  relative viability: 0.305
NCI-H1944; first compound 0.04 µM
  relative viability: 0.202
NCI-H1944; first compound 0.1265 µM
  relative viability: 0.14
NCI-H1944; first compound 0.4 µM
  relative viability: 0.204
NCI-H1944; first compound 1.265 µM
  relative viability: 0.179
NCI-H1944; first compound 4 µM
  relative viability: 0.214
HCC-366; first compound 0.04 µM
  relative viability: 0.667
HCC-366; first compound 0.4 µM
  relative viability: 0.599
HCC-366; first compound 1.265 µM
  relative viability: 0.368
HCC-366; first compound 4 µM
  relative viability: 0.324
A-427; first compound 0.04 µM
  relative viability: 0.759
A-427; first compound 0.1265 µM
  relative viability: 0.592
A-427; first compound 0.4 µM
  relative viability: 0.696
A-427; first compound 1.265 µM
  relative viability: 0.696
A-427; first compound 4 µM
  relative viability: 0.529
NCI-H2009; first compound 0.04 µM
  relative viability: 0.258
NCI-H2009; first compound 0.1265 µM
  relative viability: 0.156
NCI-H2009; first compound 0.4 µM
  relative viability: 0.196
NCI-H2009; first compound 1.265 µM
  relative viability: 0.154
NCI-H2009; first compound 4 µM
  relative viability: 0.185
LXF-289; first compound 0.04 µM
  relative viability: 0.283
LXF-289; first compound 0.1265 µM
  relative viability: 0.117
LXF-289; first compound 0.4 µM
  relative viability: 0.212
LXF-289; first compound 1.265 µM
  relative viability: 0.156
LXF-289; first compound 4 µM
  relative viability: 0.152
LC-2-ad; first compound 0.04 µM
  relative viability: 0.505
LC-2-ad; first compound 0.1265 µM
  relative viability: 0.472
LC-2-ad; first compound 0.4 µM
  relative viability: 0.219
LC-2-ad; first compound 1.265 µM
  relative viability: 0.178
LC-2-ad; first compound 4 µM
  relative viability: 0.191
